Where a name gives a salt, the structure may show the parent alone.
Assays:
[1] = tested on: CTX-induced immunocompromised mouse model; assay type: in vivo; conditions: serum, CTX mice, LEV 10 mg·kg^−1
Experimental: (§1) SPF BALB/c male mice that each were 6 to 8 weeks old and weighed 18 g to 22 g were provided by Liaoning Changsheng Biotechnology Co., Ltd., with animal license No.: SCXK (Liao) 2020-0001. The BALB/c mice were randomly divided into 7 groups, with 8 mice in each group. Mice in the blank group and model group were each orally gavaged with 0.4 mL of NS, mice in the positive control group were each orally gavaged with levamisole hydrochloride (LEV) (10 mg·kg^−1), and mice in the B. lactis strain XLTG11 dose groups were orally gavaged with 0.4 mL of B. lactis strain XLTG11 suspensions at doses of 1×10^9 cfu, 1×10^8 cfu, 1×10^7 cfu, and 1×10^6 cfu per mouse, respectively. The mice were orally gavaged continuously for 28 d, during which the mice could eat and drink freely. On day 23 and day 24 after the oral gavage, mice in the model group, positive control group, and B. lactis strain XLTG11 dose groups were intraperitoneally injected with CTX (40 mg·kg^−1), and mice in the blank group were intraperitoneally injected with an equal volume of NS.
min after the last oral gavage to mice in each group, eyeballs were removed, the whole blood was collected and centrifuged at 3000 r·min^−1 for 10 min, and the resulting serum was collected, dispensed, and frozen in a −80° C. refrigerator for test. Serum IgA, IgG, IL-2, IL-6, IFN-γ, and TNF-α levels were determined with an ELISA kit, and specific operation steps were conducted according to the instructions.

[2] = tested on: CTX-induced immunocompromised mouse model; assay: Pathological changes of small intestinal mucosal tissue (HE staining) in CTX mice; assay type: in vivo, BALB/c male mice; conditions: LEV 10 mg·kg^−1, CTX mice, FIG. 9
Experimental: as §1

[3] = tested on: CTX-induced immunocompromised mouse model; assay type: in vivo
Experimental: as §1

[4] = tested on: CTX-induced immunocompromised mouse model; assay: Villus height of small intestinal mucosa in CTX mice; assay type: in vivo, BALB/c male mice; conditions: LEV 10 mg·kg^−1, vs model group, P<0.05, FIG. 10
Experimental: as §1

In the case of `c1ccc([C@H]2CN3CCSC3=N2)cc1` [Positive control, levamisole hydrochloride], the IFN-γ [1] is reported as 466.78 ± 62.60 ng/L, the IL-2 [1] is reported as 666.32 ± 134.02 ng/L and the IL-6 [1] is reported as 77.12 ± 17.49 pg/mL. The IgA [1] was 55.95 ± 3.66 ng/mL, the IgG [1] was 467.59 ± 54.35 ng/mL and the TNF-α [1] was 496.86 ± 49.31 ng/L. The “damage of the small intestinal mucosal tissue” value [2] was “improved”, the Toe thickness difference ([3]; LEV 10 mg·kg^−1, CTX mice, before vs 24 h after SRBC injection) was 0.054 cm and the Goblet cell number ([3]; LEV 10 mg·kg^−1, CTX mice, number of goblet cells/epithelial length (mm)) was 25.22. For the same molecule, the Spleen index ([3]; LEV 10 mg·kg^−1 oral gavage 28 d, CTX mice, spleen mass (mg)/body mass (g)) was 2.97, the Thymus index ([3]; LEV 10 mg·kg^−1 oral gavage 28 d, CTX mice, thymus mass (mg)/body mass (g)) was 1.42 and the “small intestinal villus height” value [4] was “increased”.

From patent US11959067B2, “Bifidobacterium lactis strain for preventing or treating colitis and method for preventing or alleviating colitis” (HARBIN SUNFLOWER PHARMACEUTICAL CO., LTD., priority 2021, dated 2024)
